Laboratory results reported in US20130131161A1, “METHODS AND COMPOSITIONS FOR CARDIOVASCULAR DISEASES AND CONDITIONS” (priority 2009, published 2013).

Test system: Human umbilical vein endothelial cells (HUVECs)
Experiment: eNOS activity analysis: NO, ONOO− and NO/ONOO− release from HUVECs of 50 genotyped donors in response to LA-419 (Example 2)
Format: cell-based
Conditions: for Net increase over control ONOO− (mean ± sd) / Peak release NO (mean ± sd) / Peak release NO/ONOO− (mean ± sd) / Peak release ONOO− (mean ± sd) / Net increase over control NO (mean ± sd) / Net increase over control NO/ONOO− (mean ± sd) / % Change Ratio, % Change NO/% Change ONOO− (mean ± sd): LA-419 1 μM; for % Change NO (mean ± sd) / % Change NO/ONOO− (mean ± sd) / % Change ONOO− (mean ± sd): LA-419 5 μM vs control
Experimental: Concurrent measurements of NO and ONOO^− were carried out with tandem electrochemical nanosensors combined into one working unit with a total diameter of 200-500 nm (FIG. 1). Their design was based on previously developed and well-characterized chemically modified carbon-fiber technology (Malinski and Taha, 1992; Lvovich and Scheeline, 1997). Each of the nanosensors was made by depositing a sensing material on the tip of a carbon fiber (length 4-5 μm, diameter 0.2-0.5 μm). The fibers were sealed with nonconductive epoxy and electrically connected to copper wires with conductive silver epoxy. A conductive film of polymeric nickel (II) tetrakis(3-methoxy-4-hydroxyphenyl)porphyrin for the NO-sensor and polymeric film of Mn (III) [2.2]paracyclophanylporphyrin was used for the ONOO^−-sensor.
A module of NO/ONOO^− nanosensors (diameter 1-2 μm) with a platinum wire (0.1 mm) counter electrode and saturated calomel reference electrode (SCE) were applied. Differential pulse voltammetry (DPV) and amperometry were performed with a computer-based Gamry VFP600 multichannel potentiostat. DPV was used to measure the basal NO and ONOO^− concentrations, and amperometry was used to measure changes in NO and ONOO^− concentrations from its basal level with time. The DPV current at the peak potential characteristic for NO oxidation (0.65 V) and ONOO^− reduction (−0.45 V) was directly proportional to the local concentrations of these compounds in the immediate vicinity of the sensor. Linear calibration curves (current vs. concentration) were constructed for each sensor from 10 nM to 3 μM before and after measurements with aliquots of NO and ONOO^− standard solutions, respectively. The detection limit of the sensors was 1.0 nM.
The quantification of each analyte (concentration in nM) was performed using a maximum current from amperograms and standard calibration curves. A reproducibility of measurements with nanosensors is relatively high (between 5-12%). […] The sensors were slowly raised 5±2 μm from the surface of a single endothelial cell. The eNOS agonist, calcium ionophore A23187 (CaI) as well as the different drugs were then added to the surrounding media at the cell surface with a nanoinjector that was also positioned by a computer controlled-micromanipulator.
This example describes the genotype-specific response of the three major eNOS variants to 1 μM and 5 μM concentrations of LA-419. The three major genetic polymorphisms studied were the Glu298Asp variant (E298D or 894G→T) in exon 7 of […], the −786T→C variant in the promoter region, and the intron 4 polymorphism (VNTR). All of these variants have possible effects on the cardiovascular system and endothelial dysfunction. For this study, human umbilical vein endothelial cells (HUVECs) from 50 donors between 18 and 32 years of age were used.
For the analysis several analysis techniques were employed. First, the effect of genotype on NO and ONOO^− release was explored within the different concentrations of LA-419 (control, 1 μM, 5 μM), calculated as the average peak release (nmols/L) of NO, ONOO^−, and NO/ONOO^−. The effect of genotype on the net increase in NO, ONOO^−, and NO/ONOO^− for LA-419 (1 μM and 5 μM) as compared to control was also measured. In addition, an analysis was done on the effect of genotype on the % change in NO, ONOO^−, and NO/ONOO^− production for LA-419 (1 μM and 5 μM), calculated as:
% Change=[(avg. LA-419−avg. control)/(avg. control)]*100
Finally, an evaluation was undertaken concerning the effect of genotype on the production of NO, ONOO^−, and NO/ONOO^− as the fold difference of control for LA-419 (1 μM and 5 μM), calculated as:
Fold Difference=(avg. LA-419)/(avg. control)
Within each calculation technique the results were compared for statistical significance using a non-parametric ANOVA Kruskal-Wallace test or a non-parametric Mann-Whitney U test. Statistical significance was set at a p-value <0.05 in a two-tailed distribution. […]

[1] = HUVECs Intron 4 variant b/a, a/a, c/c
[2] = HUVECs T-786C variant T/C & C/C
[3] = HUVEC donor Race Caucasian/Black

CC(=O)SC1COC2C(O[N+](=O)[O-])COC12 (stereo not drawn) [LA-419, S-(6-Nitro-oxi-hexahydro-furo[3,2-b]furan-3-1-il)thioacetate]
Net increase over control ONOO− (mean ± sd) (HUVECs Intron 4 variant b/a): −37.57 (99.15) nmols/L
Peak release NO (mean ± sd) (HUVECs Intron 4 variant b/a): 377.23 (69.05) nmols/L
Peak release NO/ONOO− (mean ± sd) (HUVECs Intron 4 variant b/a): 1.25 (0.46)
Peak release ONOO− (mean ± sd) (HUVECs Intron 4 variant b/a): 330.47 (88.93) nmols/L
Net increase over control NO (mean ± sd) [1]: 27.83 (86.07) nmols/L
Net increase over control NO/ONOO− (mean ± sd) [1]: 0.16 (0.46)
Net increase over control ONOO− (mean ± sd) [1]: −21.43 (98.29) nmols/L
Peak release NO (mean ± sd) [1]: 366.00 (71.50) nmols/L
Peak release NO/ONOO− (mean ± sd) [1]: 1.15 (0.48)
Peak release ONOO− (mean ± sd) [1]: 356.55 (98.40) nmols/L
Net increase over control NO (mean ± sd) (HUVECs Intron 4 variant b/b): 39.66 (70.27) nmols/L
Net increase over control NO/ONOO− (mean ± sd) (HUVECs Intron 4 variant b/b): 0.29 (0.47)
Net increase over control ONOO− (mean ± sd) (HUVECs Intron 4 variant b/b): −51.71 (108.03) nmols/L
Peak release NO (mean ± sd) (HUVECs Intron 4 variant b/b): 393.18 (77.21) nmols/L
Peak release NO/ONOO− (mean ± sd) (HUVECs Intron 4 variant b/b): 1.33 (0.42)
Peak release ONOO− (mean ± sd) (HUVECs Intron 4 variant b/b): 317.60 (74.77) nmols/L
Net increase over control NO (mean ± sd) (HUVECs Intron 4 variant c/c): −98.67 (0) nmols/L
Net increase over control NO/ONOO− (mean ± sd) (HUVECs Intron 4 variant c/c): −0.23 (0)
Net increase over control ONOO− (mean ± sd) (HUVECs Intron 4 variant c/c): −2.67 (0) nmols/L
Peak release NO (mean ± sd) (HUVECs Intron 4 variant c/c): 270.00 (0) nmols/L
Peak release NO/ONOO− (mean ± sd) (HUVECs Intron 4 variant c/c): 0.64 (0)
Peak release ONOO− (mean ± sd) (HUVECs Intron 4 variant c/c): 423.67 (0) nmols/L
% Change Ratio, % Change NO/% Change ONOO− (mean ± sd) (HUVECs T-786C variant C/C): −0.80 (1.04)
Net increase over control NO (mean ± sd) (HUVECs T-786C variant C/C): 2.08 (39.61) nmols/L
Net increase over control NO/ONOO− (mean ± sd) (HUVECs T-786C variant C/C): −0.48 (0.48)
Net increase over control ONOO− (mean ± sd) (HUVECs T-786C variant C/C): 25.25 (135.63) nmols/L
Peak release NO (mean ± sd) (HUVECs T-786C variant C/C): 334.25 (68.06) nmols/L
Peak release NO/ONOO− (mean ± sd) (HUVECs T-786C variant C/C): 0.88 (0.50)
Peak release ONOO− (mean ± sd) (HUVECs T-786C variant C/C): 430.17 (124.82) nmols/L
% Change Ratio, % Change NO/% Change ONOO− (mean ± sd) (HUVECs T-786C variant T/C): −1.06 (0.82)
Net increase over control NO (mean ± sd) (HUVECs T-786C variant T/C): 46.77 (81.32) nmols/L
Net increase over control NO/ONOO− (mean ± sd) (HUVECs T-786C variant T/C): −0.99 (0.94)
Net increase over control ONOO− (mean ± sd) (HUVECs T-786C variant T/C): −61.09 (111.68) nmols/L
Peak release NO (mean ± sd) (HUVECs T-786C variant T/C): 396.32 (73.63) nmols/L
Peak release NO/ONOO− (mean ± sd) (HUVECs T-786C variant T/C): 1.35 (0.44)
Peak release ONOO− (mean ± sd) (HUVECs T-786C variant T/C): 315.74 (78.13) nmols/L
Net increase over control NO (mean ± sd) [2]: 40.15 (77.70) nmols/L
Net increase over control NO/ONOO− (mean ± sd) [2]: −0.91 (0.90)
Net increase over control ONOO− (mean ± sd) [2]: −48.30 (116.85) nmols/L
Peak release NO (mean ± sd) [2]: 387.12 (75.01) nmols/L
Peak release NO/ONOO− (mean ± sd) [2]: 1.28 (0.47)
Peak release ONOO− (mean ± sd) [2]: 332.69 (93.16) nmols/L
% Change Ratio, % Change NO/% Change ONOO− (mean ± sd) (HUVECs T-786C variant T/T): 1.06 (9.40)
Net increase over control NO (mean ± sd) (HUVECs T-786C variant T/T): 30.80 (64.85) nmols/L
Net increase over control NO/ONOO− (mean ± sd) (HUVECs T-786C variant T/T): 0.77 (8.26)
Net increase over control ONOO− (mean ± sd) (HUVECs T-786C variant T/T): −27.14 (82.12) nmols/L
Peak release NO (mean ± sd) (HUVECs T-786C variant T/T): 380.73 (75.61) nmols/L
Peak release NO/ONOO− (mean ± sd) (HUVECs T-786C variant T/T): 1.22 (0.43)
Peak release ONOO− (mean ± sd) (HUVECs T-786C variant T/T): 335.82 (80.98) nmols/L
ONOO− production versus control (LA-419 5 μM (Table b2)): decrease
% Change NO (mean ± sd) [3]: 16.93 (4.34) %
% Change NO/ONOO− (mean ± sd) [3]: 58.92 (16.01) %
% Change ONOO− (mean ± sd) [3]: −25.30 (9.90) %
% Change NO (mean ± sd) (HUVEC donor Race Not Reported): 18.69 (5.53) %
% Change NO/ONOO− (mean ± sd) (HUVEC donor Race Not Reported): 75.55 (20.43) %
% Change ONOO− (mean ± sd) (HUVEC donor Race Not Reported): −31.56 (5.34) %
% Change NO (mean ± sd) (HUVEC donor alpha): 12.82 (5.82) %
% Change NO/ONOO− (mean ± sd) (HUVEC donor alpha): 36.30 (14.59) %
% Change ONOO− (mean ± sd) (HUVEC donor alpha): −16.43 (6.22) %
% Change NO (mean ± sd) (HUVEC donor beta): 14.30 (6.78) %
% Change NO/ONOO− (mean ± sd) (HUVEC donor beta): 39.65 (12.24) %
% Change ONOO− (mean ± sd) (HUVEC donor beta): −17.84 (5.90) %
% Change NO (mean ± sd) (HUVEC donor delta): 13.97 (0) %
% Change NO/ONOO− (mean ± sd) (HUVEC donor delta): 57.83 (0) %
% Change ONOO− (mean ± sd) (HUVEC donor delta): −27.79 (0) %
% Change NO (mean ± sd) (HUVEC donor gamma): 17.23 (7.65) %
% Change NO/ONOO− (mean ± sd) (HUVEC donor gamma): 57.79 (12.24) %
% Change ONOO− (mean ± sd) (HUVEC donor gamma): −25.17 (5.79) %
% Change NO (mean ± sd) (HUVECs G894T variant G/G): 15.93 (6.37) %
% Change NO/ONOO− (mean ± sd) (HUVECs G894T variant G/G): 47.91 (17.67) %
% Change ONOO− (mean ± sd) (HUVECs G894T variant G/G): −20.65 (7.38) %
% Change NO (mean ± sd) (HUVECs G894T variant G/T): 13.43 (6.31) %
% Change NO/ONOO− (mean ± sd) (HUVECs G894T variant G/T): 38.86 (13.20) %
% Change ONOO− (mean ± sd) (HUVECs G894T variant G/T): −17.85 (6.26) %
% Change NO (mean ± sd) (HUVECs G894T variant T/T): 11.67 (6.86) %
% Change NO/ONOO− (mean ± sd) (HUVECs G894T variant T/T): 39.03 (13.43) %
% Change ONOO− (mean ± sd) (HUVECs G894T variant T/T): −19.03 (8.40) %
% Change NO (mean ± sd) (HUVECs Intron 4 variant a/a): 13.60 (3.88) %
% Change NO/ONOO− (mean ± sd) (HUVECs Intron 4 variant a/a): 36.75 (3.58) %
% Change ONOO− (mean ± sd) (HUVECs Intron 4 variant a/a): −16.60 (3.31) %
% Change NO (mean ± sd) (HUVECs Intron 4 variant b/a): 16.81 (6.88) %
% Change NO/ONOO− (mean ± sd) (HUVECs Intron 4 variant b/a): 45.81 (14.36) %
